According to patent publication US9255268B2, “Methods for diagnosing and treating learning or mental disorders” (St. Jude Children's Research Hospital, priority 2012, dated 2016):

Experiments:
[1] = test system: LTP in Dgcr8+/− hippocampus; assay: Rescue of LTP increase in Dgcr8+/− mice by presynaptic restoration of miRNA (AAV into CA3); type: in vivo, mouse; conditions: presynaptic (CA3) AAV expression; injected at 10 weeks, LTP measured at 16 weeks
Procedure: (§1) Acute transverse hippocampal slices (400 μm) were prepared according to known methods (Earls, et al. (2010) J. Neurosci. 30:15843-15855). Briefly, mouse brains were quickly removed and placed in cold (4° C.) dissecting artificial CSF (ACSF) containing 125 mM choline-Cl, 2.5 mM KCl, 0.4 mM CaCl2, 6 mM MgCl2, 1.25 mM NaH2PO4, 26 mM NaHCO3, and 20 mM glucose (285-295 mOsm), under 95% O2/5% CO2. After dissection, slices were incubated for 1 hour in ACSF containing 125 mM NaCl, 2.5 mM KCl, 2 mM CaCl2, 2 mM MgCl2, 1.25 mM NaH2PO4, 26 mM NaHCO3, and 10 mM glucose (285-295 mOsm), under 95% O2/5% CO2 at room temperature, and then transferred into submerged recording chambers and superfused (2-3 ml/min) with warm (30-32° C.) ACSF. Field recordings were performed using a setup with eight submerged recording chambers (Campden Instruments). Recordings in each chamber were performed independently. Field EPSPs (fEPSPs) from the CA1 stratum radiatum were recorded by using an extracellular glass pipette (3-5 MΩ) filled with ACSF. Schaffer collateral fibers in the stratum radiatum were stimulated with a bipolar tungsten electrode placed 200-300 μm away from the recording pipette. Stimulation intensities were chosen to produce an fEPSP with a 0.5 V/s slope. LTP was induced by three periods of 200 Hz tetanization delivered every 5 minutes. Each period of tetanization included 10 trains of 200 Hz stimulation delivered at the same intensity for 200 ms (40 stimulations) every 5 seconds.
In Vivo Viral Injections. Adeno-associated viruses (AAVs) were prepared by cloning chimeric hairpins of them iRNAs of interest with hsa-miR-30a into the pAAV-6P-SEWB vector (Christensen, et al. (2010) Front. Neural Circuits 3:16). […]

[2] = test system: SERCA2; assay: Quantitative western blot of SERCA2 in hippocampus after AAV-miRNA injection into CA3; type: in vivo, mouse; conditions: wild-type mice; injection into CA3 at 10 weeks, hippocampi harvested at 16 weeks; versus GFP-only vector
Procedure: Western blots were performed according to known methods (Earls, et al. (2010) supra). For human brain tissue, dissected samples arrived from brain banks frozen on dry ice. Mouse tissue was dissected at 4° C. and prepared either as whole-tissue lysates or as crude P2 synaptosomal fractions. Synaptosomes were prepared using established methods (Gray & Whittaker (1962) J. Anat. 96:79-88). In brief, tissue was homogenized in 10 mM HEPES (pH 7.4)/0.32 M sucrose using a motorized glass-TEFLON homogenizer. To separate the P2 synaptosomal fraction, the homogenate was spun for 5 minutes at 800×g; the supernatant from three successive spins was then centrifuged for 20 minutes at 12,000×g. Tissue or synaptosomal pellets were lysed by freezing and thawing, subsequent syringe passage in ice-cold radioimmunoprecipitation assay buffer (50 mM Tris-HCl (pH 7.4), 1% NP-40, 0.25% sodium deoxycholate, 150 mM NaCl, 1 mM EDTA, and protease inhibitor cocktail tablets (Roche), and finally brief sonication. Concentrations of protein lysates were determined by the BCA assay (Thermo Scientific). A 25 μg sample of each protein extract was electrophoresed on a 10% SDS-PAGE gel, and protein was transferred onto polyvinylidene difluoride membranes (Invitrogen). The primary antibodies used were goat anti-SERCA2 (1:250, sc-8095; Santa Cruz Biotechnology) and mouse anti-β-actin (1:10000, A5316; Sigma-Aldrich). […]

[3] = test system: LTP at CA3-CA1 synapses in hippocampal slices; assay: LTP of fEPSPs in acute hippocampal slices in the presence of the SERCA inhibitor thapsigargin; type: cell-based, mouse
Procedure: as §1, with “seconds. To test whether this increase in SERCA2 was necessary for enhanced LTP in Dgcr8^+/− mice, LTP was measured in the presence of the SERCA inhibitor thapsigargin (4 μM). […] In the absence of thapsigargin, the fEPSP slope increased measured six hours after induction was approximately 120% stronger than in the presence of thapsigargin in slices from Dgcr8^+/− mice (8 mice: 21 slices vehicle, 21 slices thapsigargin; p=0.014).” for “seconds.”

| Molecule | rescue of increased LTP in Dgcr8+/− hippocampus [1] | SERCA2 levels (quantitative western blot) [2] | fEPSP slope increase in the absence versus the presence of thapsigargin ([3]; six hours after induction, 4 μM, slices from Dgcr8+/− mice, p=0.014) | LTP increase in Dgcr8+/− slices ([3]; thapsigargin 4 μM, slices from mature Dgcr8+/− mice) | LTP in slices from wild-type littermates ([3]; thapsigargin 4 μM, wild-type slices, p=0.974) |
| --- | --- | --- | --- | --- | --- |
| miR-98: microRNA; human mature sequence UGAGGUAGUAAGUUGUAUUGUU (SEQ ID NO:4) (UGAGGUAGUAAGUUGUAUUGUU; expressed or natural sequence; listed as Homo sapiens) | sufficient to rescue aberrant LTP |  |  |  |  |
| miR-185: microRNA; human mature sequence UGGAGAGAAAGGCAGUUCCUGA (SEQ ID NO:6) (UGGAGAGAAAGGCAGUUCCUGA; expressed or natural sequence; listed as Homo sapiens) | sufficient to rescue the increased LTP | decreased |  |  |  |
| miR-25: microRNA; human mature sequence CAUUGCACUUGUCUCGGUCUGA (SEQ ID NO:2) (CAUUGCACUUGUCUCGGUCUGA; expressed or natural sequence; listed as Homo sapiens) | sufficient to rescue the increased LTP | decreased |  |  |  |
| C/C=C(/C)C(=O)O[C@H]1C(C)=C2[C@H]([C@@H]1OC(=O)CCCCCCC)[C@@](C)(OC(C)=O)C[C@H](OC(=O)CCC)[C@@]1(O)[C@H]2OC(=O)[C@@]1(C)O [thapsigargin] |  |  | approximately 120% | rescued the LTP increase | did not affect LTP |
